The target in data set [1] is CYP3A4 (Homo sapiens, UniProt P08684). Put plainly: Inhibition of CYP3A4 (unknown origin) at 1 uM relative to control. Format: ADME.
Data set [2] relates to Plasmodium falciparum. The data set is described as follows: Antiplasmodial activity against Plasmodium falciparum Dd2 infected in erythrocytes assessed as inhibition of parasite growth incubated for 72 hrs by [3H]hypoxanthine incorporation based microbeta counting analysis. Type of data set: functional, organism-based. Conditions: Dd2, Erythrocyte.
A short description of data set [3]: Intrinsic clearance in human liver microsomes at 1 uM measured for 60 mins by LC-MS/MS analysis. To be noted: read-out: CLH. Type of data set: ADME, Microsome. On the technique in general: Microsomes from liver hold many membrane-bound enzymes, among them those of drug oxidation.
Data set [4] concerns Plasmodium falciparum. The data set is described as follows: Antiplasmodial activity against multidrug-resistant Plasmodium falciparum TM90-C2B infected in erythrocytes assessed as inhibition of parasite growth incubated for 72 hrs by [3H]hypoxanthine incorporation based microbeta counting analysis. Format: functional, organism-based. Conditions: Erythrocyte.
In data set [5] the test system is Plasmodium falciparum. Put plainly: Antiplasmodial activity against multidrug-resistant Plasmodium falciparum Dd2 harboring cyt b-I22L mutant infected in erythrocytes assessed as inhibition of parasite growth incubated for 72 hrs by [3H]hypoxanthine incorporation based microbeta counting analysis. Format: functional, organism-based. To be noted: Dd2, Erythrocyte.

Data set [6] has as its target T1, CYP1A2 (Homo sapiens, UniProt P05177).
T1 sequence (P05177 whole entry): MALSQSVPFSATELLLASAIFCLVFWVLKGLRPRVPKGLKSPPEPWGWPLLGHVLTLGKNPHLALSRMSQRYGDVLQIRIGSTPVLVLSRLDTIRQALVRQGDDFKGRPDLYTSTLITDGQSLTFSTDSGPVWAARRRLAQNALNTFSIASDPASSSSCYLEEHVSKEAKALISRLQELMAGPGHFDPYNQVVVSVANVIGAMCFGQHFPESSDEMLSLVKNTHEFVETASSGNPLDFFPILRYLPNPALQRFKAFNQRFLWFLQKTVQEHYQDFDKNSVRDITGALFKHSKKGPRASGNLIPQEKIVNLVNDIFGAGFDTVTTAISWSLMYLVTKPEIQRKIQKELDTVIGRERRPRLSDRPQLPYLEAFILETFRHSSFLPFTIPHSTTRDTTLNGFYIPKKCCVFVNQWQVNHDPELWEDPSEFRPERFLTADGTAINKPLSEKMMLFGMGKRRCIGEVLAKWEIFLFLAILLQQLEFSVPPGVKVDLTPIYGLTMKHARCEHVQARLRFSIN
The data set is described as follows: Inhibition of CYP1A2 (unknown origin) at 1 uM relative to control. Format: ADME.

For data set [7], the system named is Plasmodium falciparum. Put plainly: Antiplasmodial activity against drug-resistant Plasmodium falciparum Dd2-B2 in 2x10^7 bulk culture selection assessed as concentration required to complete parasite killing measured on day 2 under initial selection drug pressure concentration of 3XEC50 by Minimum inoculum of resistance analysis. Type of data set: functional. To be noted: time 2 day.

Data set [8] has as its system Plasmodium falciparum. Put plainly: Resistance ratio of EC90 for antiplasmodial activity against drug-resistant recrudescent Plasmodium falciparum Dd2-B2 in 2x10^5 to 2x10^6 bulk culture selection measured on day 15 under initial selection drug pressure concentration of 3XEC50 to EC90 for antiplasmodial activity against Plasmodium flaciparum Dd2 measured after 72 hrs. Type of data set: functional.

The subject of data set [9] is Plasmodium falciparum. The data set is described as follows: Antiplasmodial activity against multidrug-resistant Plasmodium falciparum Dd2 harboring DHODH-C276F mutant infected in erythrocytes assessed as inhibition of parasite growth incubated for 72 hrs by [3H]hypoxanthine incorporation based microbeta counting analysis. Type of data set: functional, organism-based. Conditions: Dd2, Erythrocyte.

The nature of data set [10]: Intrinsic clearance in rat hepatocytes at 1 uM measured per million cells for 90 mins by LC-MS/MS analysis. Format: ADME, cell-based, Hepatocyte. To be noted: read-out: CLH.
The test system of data set [11] is Plasmodium falciparum. The data set is described as follows: Antiplasmodial activity against drug-resistant Plasmodium falciparum Dd2-B2 bulk cultures assessed as minimum inoculum of resistance measured under initial selection drug pressure concentration of 3XEC50 by MIR analysis. Type of data set: functional.
In data set [12] the test system is Plasmodium falciparum. The data set is described as follows: Resistance ratio of EC50 for antiplasmodial activity against drug-resistant recrudescent Plasmodium falciparum Dd2-B2 in 2x10^5 to 2x10^6 bulk culture selection measured on day 15 under initial selection drug pressure concentration of 3XEC50 to EC50 for antiplasmodial activity against Plasmodium flaciparum Dd2-B2 measured after 72 hrs. Type of data set: functional.

For data set [13], the target named is T1, CYP1A2. The data set is described as follows: Inhibition of CYP1A2 (unknown origin) at 10 uM relative to control. Format: ADME.
Data set [14] is described as follows: Lipophilicity, elogD of the compound in 1-Octanol/PBS at pH 7.4 at 7.5 uM incubated for 2 hrs by miniaturized shake flask method. Format: physicochemical.
Data set [15] concerns the target CYP2D6 (Homo sapiens, UniProt P10635). Put plainly: Inhibition of CYP2D6 (unknown origin) at 10 uM relative to control. Format: ADME.
Data set [16] has as its target CYP2C19 (Homo sapiens, UniProt P33261). Put plainly: Inhibition of CYP2C19 (unknown origin) at 1 uM relative to control. Type of data set: ADME.

The inhibition is the relative decrease from the control value, in per cent. Read a low inhibition as little suppression. As a reminder, the pEC50 is the negative decadic logarithm of the EC50, by convention in mol/L. Usually logD stands for the decadic logarithm of the distribution of all forms, ionised or not, between an organic phase and buffer at a given pH. A lower logD goes with lower lipophilicity.

pEC50: −log10 of the molar value.

Sequence of CYP3A4 (P08684 whole entry): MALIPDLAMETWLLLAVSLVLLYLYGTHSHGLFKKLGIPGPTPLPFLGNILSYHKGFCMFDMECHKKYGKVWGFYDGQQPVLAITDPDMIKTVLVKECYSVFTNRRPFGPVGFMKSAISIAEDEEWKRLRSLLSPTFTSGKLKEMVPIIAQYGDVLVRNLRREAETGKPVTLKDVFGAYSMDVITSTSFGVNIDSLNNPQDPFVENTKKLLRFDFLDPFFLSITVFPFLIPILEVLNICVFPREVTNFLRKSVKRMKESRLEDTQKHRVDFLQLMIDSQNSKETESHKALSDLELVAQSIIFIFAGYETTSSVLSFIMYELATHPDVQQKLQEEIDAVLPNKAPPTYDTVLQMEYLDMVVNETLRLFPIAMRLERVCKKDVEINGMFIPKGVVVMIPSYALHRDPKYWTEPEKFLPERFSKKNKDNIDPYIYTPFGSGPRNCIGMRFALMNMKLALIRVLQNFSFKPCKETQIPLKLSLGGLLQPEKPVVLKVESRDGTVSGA
Sequence of CYP2C19 (P33261 whole entry): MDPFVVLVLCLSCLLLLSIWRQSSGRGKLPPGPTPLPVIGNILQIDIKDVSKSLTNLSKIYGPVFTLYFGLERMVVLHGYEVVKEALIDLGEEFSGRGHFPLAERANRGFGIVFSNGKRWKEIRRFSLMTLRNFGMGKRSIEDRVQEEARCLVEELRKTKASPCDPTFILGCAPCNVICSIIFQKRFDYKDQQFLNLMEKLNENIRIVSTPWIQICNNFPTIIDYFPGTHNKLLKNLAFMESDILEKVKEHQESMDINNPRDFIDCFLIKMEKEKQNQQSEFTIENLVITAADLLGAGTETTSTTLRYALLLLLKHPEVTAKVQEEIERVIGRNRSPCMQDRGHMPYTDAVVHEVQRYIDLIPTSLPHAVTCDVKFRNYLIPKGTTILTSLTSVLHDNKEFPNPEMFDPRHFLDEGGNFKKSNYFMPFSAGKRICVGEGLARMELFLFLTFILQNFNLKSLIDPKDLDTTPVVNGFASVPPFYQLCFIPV
Sequence of CYP2D6 (P10635 whole entry): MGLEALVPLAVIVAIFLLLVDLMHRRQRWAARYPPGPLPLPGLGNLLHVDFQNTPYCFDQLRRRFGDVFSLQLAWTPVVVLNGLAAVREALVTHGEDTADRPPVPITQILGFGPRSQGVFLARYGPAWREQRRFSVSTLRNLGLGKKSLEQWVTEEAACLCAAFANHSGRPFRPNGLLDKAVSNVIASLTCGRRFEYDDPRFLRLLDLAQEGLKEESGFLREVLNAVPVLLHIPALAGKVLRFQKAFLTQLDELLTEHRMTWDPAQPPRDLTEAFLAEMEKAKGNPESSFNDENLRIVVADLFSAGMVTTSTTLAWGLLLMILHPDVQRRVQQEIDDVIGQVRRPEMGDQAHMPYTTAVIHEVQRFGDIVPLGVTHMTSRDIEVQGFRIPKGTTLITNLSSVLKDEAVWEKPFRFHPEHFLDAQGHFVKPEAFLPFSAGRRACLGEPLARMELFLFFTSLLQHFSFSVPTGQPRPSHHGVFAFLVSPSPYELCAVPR

As to `Cc1nn(C(C)(C)C)c2nc(C3CC3)cc(C(=O)N3CCOc4ccncc43)c12`, the inhibition at 1 µM was 66.2% in data set [1], 18% in data set [6] and 3.6% in data set [16]. Also, the pEC50 in data set [2] was 8.40; in [4], 8.15; in data set [5], 8.22; in data set [9], 8.15. Besides, in [3], the microsomal CLint at 1 µM is 116 µL/min/mg. For the same compound, the Activity in data set [7] was 28 nM; in data set [11] it was 1.6 10^6No_unit. Moreover, in data set [8], the Ratio came out at 5. The hepatocyte CLint at 1 µM in data set [10] came to 26 µL/min/1e6 cells. For the same compound, the Ratio EC50 in data set [12] is 3. Besides, the inhibition at 10 µM in data set [13] worked out at 55.1%; in data set [15], 86.4%. The pH-dependent lipophilicity (logD) at 2 h, 7.5 µM in data set [14] came out at 4.1.

For the origin of these results see ChEMBL document CHEMBL5608197, “Optimization of pyrazolopyridine 4-carboxamides with potent antimalarial activity for which resistance is associated with the P. falciparum transporter ABCI3” (Eur J Med Chem, 2024).
